Tests used:
[1] = molecular target: Recombinant Human ENPP-2/Autotaxin Protein (Homo sapiens (Human), UniProt Q13822); test: ENPP2 Inhibition Assay; type: biochemical
Protocol: Assay Buffer: 10 mM CaCl2, 5 mM MgCl2, 50 mM Tris, 0.02% Brij-35, pH 8.5. Substrate: 2 mM Bis(p-Nitrophenyl) Phosphate Sodium Salt (Sigma Cat # N3002). Enzyme: 0.2 ng/μL Recombinant Human ENPP-2/Autotaxin Protein (R&D Cat #5255-EN), PF-3080 in DMSO in 96-well clear assay plates
(§1) An eight point serial dilution of drugs was prepared in 10× in assay buffer with the final assay concentrations starting at 10 μM, 3 μM, 1 μM, 0.3 μM . . . 0 μM. A dilution of DMSO was included as a control. The assay plate was set up as follows with each well in duplicate: 15 μL assay buffer+10 μL ENPP1 inhibitor or DMSO+50 μL Substrate+25 μL Enzyme. Both the enzyme and substrate were added to opposite sides of the well to ensure that there was no interaction until all wells had both components. The plate was then centrifuged gently for 10 seconds, followed by an incubation at 37° C. for 45 minutes. The reaction was quantified by measuring absorbance at 405 nm using the Envision.
(§2) IC50 values are determined using GraphPad Prism 5 software. The data were entered as an X-Y plot into the software as percent inhibition for each concentration of the drug. The concentration values of the drug were log transformed and the nonlinear regression was carried out using the “sigmoidal dose-response (variable slope)” option within the GraphPad software to model the data and calculate IC50 values. The IC50 values reported are the concentration of drug at which 50% inhibition was reached.

[2] = molecular target: ENPP1 protein (Homo sapiens (Human), UniProt P22413); test: ENPP1 Inhibition Assay (thymidine 5′-monophosphate p-nitrophenol ester substrate); type: biochemical
ENPP1 protein, sequence (P22413 whole entry, looked up, change not shown): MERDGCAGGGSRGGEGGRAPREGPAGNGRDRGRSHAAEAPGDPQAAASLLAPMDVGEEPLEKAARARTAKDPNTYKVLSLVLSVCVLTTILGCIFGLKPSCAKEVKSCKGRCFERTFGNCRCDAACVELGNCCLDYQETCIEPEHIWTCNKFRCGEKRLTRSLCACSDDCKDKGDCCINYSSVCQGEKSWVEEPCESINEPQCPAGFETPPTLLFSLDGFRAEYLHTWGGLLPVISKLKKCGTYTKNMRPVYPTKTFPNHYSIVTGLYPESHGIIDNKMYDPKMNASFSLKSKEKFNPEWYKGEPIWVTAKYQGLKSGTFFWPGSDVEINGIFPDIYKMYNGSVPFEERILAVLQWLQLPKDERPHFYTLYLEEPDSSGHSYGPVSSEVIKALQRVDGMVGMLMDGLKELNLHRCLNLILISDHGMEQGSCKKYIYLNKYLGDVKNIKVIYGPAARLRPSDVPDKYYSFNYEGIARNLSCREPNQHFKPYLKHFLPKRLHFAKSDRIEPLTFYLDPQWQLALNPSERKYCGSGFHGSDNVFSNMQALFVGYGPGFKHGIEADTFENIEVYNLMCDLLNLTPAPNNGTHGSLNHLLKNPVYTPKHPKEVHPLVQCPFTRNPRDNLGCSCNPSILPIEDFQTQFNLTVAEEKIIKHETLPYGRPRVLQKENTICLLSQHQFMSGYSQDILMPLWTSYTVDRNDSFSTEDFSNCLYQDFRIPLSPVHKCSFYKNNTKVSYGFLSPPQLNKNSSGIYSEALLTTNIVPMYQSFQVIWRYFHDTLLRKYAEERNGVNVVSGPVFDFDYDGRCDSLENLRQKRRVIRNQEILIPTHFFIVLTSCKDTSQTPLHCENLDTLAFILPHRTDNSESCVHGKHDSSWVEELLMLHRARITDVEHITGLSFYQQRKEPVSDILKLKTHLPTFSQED
Protocol: Assay Buffer: 1 mM CaCl2, 0.2 mM ZnCl2, 50 mM Tris, pH 9.0. Substrate: 8 mM Thymidine 5′-monophosphate p-nitrophenol ester sodium salt (Sigma Cat #T4510). Enzyme: 5 ng/L Recombinant Human ENPP-1 Protein (R&D Cat #6136-EN-010) in DMSO in 96-well clear assay plates
as §1, with “81” for “15”, “DMSO+5” for “DMSO+50”, “Substrate+4” for “Substrate+25”
as §2

[3] = molecular target: T1, Recombinant Human ENPP-1 Protein (purified in-house) (Homo sapiens (Human), UniProt P22413); test: ENPP1 Assay (ATP), Example 2; type: biochemical
T1 sequence (P22413 whole entry, looked up): as the sequence (P22413 whole entry, looked up, change not shown) above
Protocol: Assay Buffer: 1 mM CaCl2, 0.2 mM ZnCl2, 50 mM Tris, pH 9.0. Substrate: 100 μM Adenosine 5′-triphosphate disodium salt hydrate (Promega: V703A)—Assay Conc.: 10 μM. Enzyme: 1 ng/μL Recombinant Human ENPP-1 Protein (purified in-house)—Assay Conc.: 5 ng/well of DMSO in 96-well white assay plates. Cell Titer Glo (Promega, cat #G7572).
A ten point serial dilution of drugs was prepared in 10× in assay buffer with the final assay concentrations starting at 10 μM, 3 μM, 1 μM, 0.3 μM . . . 0 μM. A dilution of DMSO was included as a control. The assay plate was set up as follows with each well in duplicate: 75 μL assay buffer+10 μL ENPP1 inhibitor or DMSO Dilutions+10 μL Substrate+5 μL Enzyme (5 ng). Both the enzyme and substrate were added to opposite sides of the well to ensure that there was no interaction until all wells had both components. The plate was then centrifuged gently for 10 seconds, followed by incubation at RT for 20 minutes. To detect levels of ATP, Cell Titer Glo was added 1:1 to each well and incubated for 10 minutes. The reaction was quantified by measuring luminescence using the Envision Plate Reader.

[4] = tested on: UWB1.289; test: Chou-Talalay Synergy Study with Olaparib, UWB1.289; type: cell-based; settings: UWB1.289, 72 hours
Protocol: Cell Lines: MDA-MB-468 and UWB289.1 (ATCC). Cell Titer Glo (Promega cat #: G7572). 96-well TC treated, white assay plates
Cells were cultured according to ATCC tissue culture recommendations. Cells were plated in a 96-well tissue culture plate at a density of 1500 cells/well and allowed to settle overnight. The following day, both drugs were prepared at 10× concentration in the following ratios (Compound 22:Olaparib): 1:1, 10:1, and 1:10. The drugs were serially diluted to create an 8-point dose curve and 10 μL of each drug was added to the cells for a total volume of 100 μL/well. Plates were placed in a tissue culture incubator for 72 hours. Following incubation, each plate was treated with Cell Titer Glo according to vendor recommendation and luminescence was measured with the Envision Plate Reader. Data was analyzed using CalcuSyn software according to the methods described in Chou, Drug combination studies and their synergy quantification using the Chou-Talalay method, Cancer Res. 2010 Jan. 15; 70(2):440-6.
A Combination index (CI) value greater than 1 indicates […], equal to 1 indicates additive and less than 1 indicates synergy.

[5] = molecular target: T1, Recombinant Human ENPP-1 Protein (purified in-house); test: ENPP1 Assay (TMP), Example 2; type: biochemical
Protocol: Enzyme: 1 ng/μL Recombinant Human ENPP-1 Protein (purified in-house)—Assay Conc.: 5 ng/well of DMSO in 96-well clear assay plates.
as §1, with “A ten” for “An eight”, “75” for “15”, “DMSO Dilutions+10” for “DMSO+50”, “Substrate+5” for “Substrate+25”, “Enzyme (5 ng).” for “Enzyme.”, “Envision Plate Reader.” for “Envision.”

Structure (SMILES): COc1ccc(NC(=O)CSc2nc3c(C)c(C#N)ncc3[nH]2)cc1O [Compound 78, 2-((6-Cyano-7-methyl-3H-imidazo[4,5-c]pyridin-2-yl)thio)-N-(3-hydroxy-4-methoxyphenyl) acetamide]
- selective at inhibiting ENPP1 but not ENPP2 [1]: selective
- inhibiting the activity of ENPP2 ([1]; FIGS. 2A and 2B): ineffective
- inhibiting the activity of ENPP1 ([2]; FIG. 1): effective
- IC50 ([2]; Table 1, FIG. 1, read-out: IC50): 79.7 nM
- IC50 ([3]; FIG. 5B, ATP substrate, read-out: IC50): 0.0731 µM
- IC50 ([3]; Table 5, ATP substrate, read-out: ENPP1 (IC50 μM) ATP): 0.116 µM
- ED50 Drug Concentration Compound 78 [4]: 48800 nM
- IC50 ([5]; FIG. 5A, TMP substrate, read-out: IC50): 0.271 µM
- IC50 ([5]; Table 5, TMP substrate, read-out: ENPP1 (IC50 μM) TMP): 0.271 µM
